Activity calls are given as the source filed them. The calls are words filed in the database; no cut-off is given here.
What was measured:
[1] = system: Mus musculus; assay: Antiinflammatory activity in mouse assessed as reduction in PMA induced ear edema topically administered per ear and measured after 200 mins; format: functional
[2] = system: Microglia; assay: Antiinflammatory activity against LPS-induced rat Primary neonatal microglia assessed as inhibition in TXB2 generation preincubated for 20 mins followed by PMA-stimulation and measured after 70 mins by immunoassay; format: functional, cell-based
[3] = system: Microglia; assay: Antiinflammatory activity against LPS-induced rat Primary neonatal microglia assessed as inhibition in superoxide anion generation preincubated for 20 mins followed by PMA-stimulation and measured after 70 mins by spectrophotometric method; format: functional, cell-based

| SMILES | ED50 [1] [µg] | IC50 [2] [µM] | inhibition [3] |
| --- | --- | --- | --- |
| C[C@]12CCC(=O)C=C1CC[C@@H]1[C@@H]2[C@@H](O)C[C@@]2(C)[C@H]1CC[C@]2(O)C(=O)CO [HYDROCORTISONE] | 20 | – | – |
| COC(=O)c1ccc2c(c1)C[C@H]1[C@]3(C)C[C@@H](O)[C@H]4C(C)(C)CC[C@@H](O)[C@]4(C)[C@H]3CC[C@]1(C)O2 [TOLYPODIOL] | 30 | – | – |
| CC(C(=O)O)c1ccc(-c2ccccc2)c(F)c1 (stereo not given) [FLURBIPROFEN] | – | 0.1 | – |
| COC(=O)c1ccc2c(c1)C[C@H]1[C@]3(C)C[C@@H](O)[C@H]4C(C)(C)CC[C@@H](O)[C@]4(C)[C@H]3[C@@H](O)C[C@]1(C)O2 | – | 0.1 | inactive |
